This is an account of results in patent US20260151378A1, “SALT AND CRYSTAL FORM OF HETEROCYCLIC DERIVATIVE INHIBITOR, AND PREPARATION METHOD THEREFOR AND USE THEREOF” (SHANGHAI HANSOH BIOMEDICAL CO., LTD., priority 2022, published 2026).

Series [1] is described as follows: Solubility experiment in different vehicles. The following applies: 37° C., 2 hours. It counts as physicochemical.
Series [2] in a line: Polymorphism study: slurrying of salt crystalline forms in solvents. The note with it: 7 days. It counts as physicochemical.
Series [3] is described as follows: PK study of crystalline forms of different salts in rats. It counts as in vivo. The note with it: SD rats, gavage, 0.5% HPMC K4M.
The nature of series [4]: Solid stability experiment. It counts as physicochemical. The method, then: About 1 mg of crystalline forms of different salts were taken and investigated at a high temperature of 60° C., a high humidity of RH=92.5%, and a high temperature and high humidity of 50° C. and 75% RH for 7 and 14 days. The changes of related substances were calculated for the crystalline forms of the salts by a chromatographic peak area normalization method.

A short description of series [5]: Hygroscopicity determination. It counts as physicochemical. The following applies: for hygroscopicity / weight gain after moisture absorption: RH 80%; for crystalline form transformation (XRPD pattern): after 1 cycle of moisture absorption and desorption, 0-95% relative humidity. The procedure:
The crystalline forms of the salt of the compound were placed in saturated water vapor at different relative humidities to reach a dynamic equilibrium between the crystalline forms of the salt of the compound and the water vapor, and the weight gain percentage after moisture absorption after equilibrium was calculated.

Series [6] has as its system human colorectal cancer cell strain DLD-1 BRCA2−/−. Briefly: In vivo pharmacodynamics in DLD-1 BRCA2−/− subcutaneous graft tumor model. Also noted: species or system BALB/c nude mice. The following applies: DLD-1 BRCA2−/− nude mice, oral, once/day, 28 days. The procedure: • a. […] The cells were passaged every three days, and after passage, the cells were placed in a CO2 incubator to continue the culture. This process was repeated until the cell number meets the needs of in vivo efficacy. • c. The cultured cells were collected, counted using a full-automatic cell counter, resuspended with PBS according to the counting results, and prepared into a cell suspension (at a density of 5×10^7/mL), which was then placed in an ice box for use. • a. Nude mouse was marked with a disposable universal ear tag for mice and rats before inoculation. • b. At the time of inoculation, the cell suspension was mixed well, 0.1-1 mL of cell suspension was taken with a 1 mL syringe, and after removing air bubbles, the syringe was placed on an ice bag until use. • c. The nude mouse was secured with the left hand. […] The nude mice were inoculated successively (inoculation with 0.1 mL of cell suspension per mouse). • a. […] According to the weight of tumor-bearing mice and the size of the tumor, the mice were grouped by random grouping. • c. […] Tumors were measured and weighed twice a week after starting administration of test drugs. • e. […] The data was processed with software such as Excel.

Series [7] relates to BRCA2 Knockout DLD-1 cells. Briefly: Inhibition of proliferation of BRCA2 Knockout DLD-1 cells (CellTiter-Glo). It counts as cell-based. The following applies: Homo sapiens, about 144 hours. The procedure: When using RPMI1640 medium containing 10% FBS to culture BRCA2 Knockout DLD-1 cells to an appropriate cell density, the cells were collected and adjusted with complete medium to an appropriate cell concentration, the cell suspension was spread in a 96-well plate, with 90 μL per well, and the plate was placed in a 37° C., 5% CO2 incubator for overnight adherence. Compound solutions with different concentrations were prepared with DMSO and the culture medium, and a vehicle control was prepared. The compound solutions were added to the 96-well plate, with 10 μL per well, and the plate was placed in a 37° C., 5% CO2 incubator for continued culturing for about 144 hours. CellTiter-Glo solution was added and uniformly mixed by shaking. After incubation for 10-30 minutes in the dark, reading was carried out with Synergy H1 or Envision microplate reader.
The inhibition rate was calculated from the luminescence signal value, and the concentration and inhibition rate were subjected to non-linear regression curve fitting by using Graphpad Prism software to obtain an IC50 value. The inhibitory effects of the compounds of some examples of the present disclosure on the proliferation activity of BRCA2 Knockout DLD-1 cells were as shown in the following table: […]
Background: In ATP-based viability assays light output follows the ATP content of the culture.

Where [8] appears, read: FaSSGF (simulated gastric fluid, fasted).
Where [9] appears, read: FaSSIF (simulated intestinal fluid, fasted).
[10] abbreviates: FeSSIF (simulated intestinal fluid, fed).

Usually solubility stands for how much of the substance goes into solution per volume. The Cmax is the maximum level reached in the sampled fluid or tissue. For “1′-((7-ethyl-6-carbonyl-5,6-dihydro-1,5-diazanaphth-3-yl)methyl)-N-methyl-1′,2′,3′,6′-tetrahydro-[3,4′-bipyridinyl]-6-carboxamide [p-toluenesulfonate dihydrate crystalline Form A]”, the “solubility” value in series [1] (setting [8]) was >437 µg/mL; in series [1] (setting [9]), 147 µg/mL; in series [1] (setting [10]), >340 µg/mL; in series [1] (Water), 308 µg/mL. The Slurrying result is “Still as hydrate crystalline” in series [2] (1,4-Dioxane, 40° C.); “Still as hydrate crystalline” in series [2] (2-Butanone, 40° C.); “Still as hydrate crystalline” in series [2] (2-Methyltetrahydrofuran, 40° C.); “p-Toluenesulfonate crystalline” in series [2] (Acetone, 40° C.); “p-Toluenesulfonate crystalline” in series [2] (Acetonitrile, 40° C.); “p-Toluenesulfonate crystalline” in series [2] (Dichloromethane, 40° C.). The Slurrying result was “p-Toluenesulfonate crystalline” in series [2] (Ethanol, 40° C.); “Still as hydrate crystalline” in series [2] (Ethyl acetate, 40° C.); “p-Toluenesulfonate crystalline” in series [2] (Ethyl formate, 40° C.); “Still as hydrate crystalline” in series [2] (Isopropanol, 40° C.); “Still as hydrate crystalline” in series [2] (Methyl tert-butyl ether, 40° C.); “Still as hydrate crystalline” in series [2] (Tetrahydrofuran, 40° C.). In addition, the Slurrying result in series [2] (Toluene, 40° C.) is given as “Still as hydrate crystalline”; in series [2] (Trichloromethane, 40° C.) it was “p-Toluenesulfonate crystalline”; in series [2] (methanol, 40° C.), “p-Toluenesulfonate crystalline”. Further, the “AUC0-t” value in series [3] (5 mpk) was 145.036 µg·h/mL; in series [3] (20 mpk), 558.44 µg·h/mL. Besides, the “AUC0-∞” value in series [3] (5 mpk) was determined as 146.622 µg·h/mL; in series [3] (20 mpk) it was 587.652 µg·h/mL. The maximum concentration (Cmax) came to 17433 ng/mL in series [3] (5 mpk) and 53400 ng/mL in series [3] (20 mpk). For the same compound, the “t1/2” value in series [3] (5 mpk) amounted to 3.8 h; in series [3] (20 mpk) it was 5.7 h. The F % in series [3] (5 mpk, 5 mg/kg) came to 92%; in series [3] (20 mpk), 93%. The “MRT0-∞” value came to 5.4 h in series [3] (5 mpk, 5 mg/kg) and 7.5 h in series [3] (20 mpk). Besides, the “tmax” value in series [3] (5 mpk, 5 mg/kg) came to 1.0 h; in series [3] (20 mpk) it was 4.0 h. Moreover, the “Stability result (total impurity increase %)” value is recorded as <0.03% in series [4] (50° C., 75% RH, 7 days); <0.03% in series [4] (50° C., 75% RH, 14 days); <0.03% in series [4] (60° C., 7 days); <0.03% in series [4] (60° C., 14 days); 0.08% in series [4] (92.5% RH, 7 days); <0.03% in series [4] (92.5% RH, 14 days). Moreover, the hygroscopicity entry in series [5] was “weak hygroscopicity”. Further, in series [5], the “weight gain after moisture absorption” value is on record as 1.906%. Also, the “crystalline form transformation (XRPD pattern)” value in series [5] is “no crystalline form transformation occurred”.

Turning to “1′-((7-ethyl-6-carbonyl-5,6-dihydro-1,5-diazanaphth-3-yl)methyl)-N-methyl-1′,2′,3′,6′-tetrahydro-[3,4′-bipyridinyl]-6-carboxamide [sulfate crystalline Form A]”, the “solubility” value is >466 µg/mL in series [1] (setting [8]), 133 µg/mL in series [1] (setting [9]), >347 µg/mL in series [1] (setting [10]) and 696 µg/mL in series [1] (Water). In addition, the Slurrying result in series [2] (1,4-Dioxane, 50° C.) was “Crystalline Form A”; in series [2] (2-Me—THF, 50° C.), “Crystalline Form A”; in series [2] (ACN, 50° C.), “Crystalline Form A”; in series [2] (Acetone, 50° C.), “Crystalline Form A”; in series [2] (EA, 50° C.), “Crystalline Form A”; in series [2] (EtOH, 50° C.) it was “Crystalline Form A”. In addition, the Slurrying result in series [2] (MeOH, 50° C.) is “Crystalline Form A”; in series [2] (THF, 50° C.) it was “Crystalline Form A”; in series [2] (Toluene, 50° C.) it was “Crystalline Form A”. Moreover, in series [3] (5 mpk, 5 mg/kg), the “AUC0-t” value amounted to 118.078 µg·h/mL. In addition, the “AUC0-∞” value in series [3] (5 mpk, 5 mg/kg) is 119.241 µg·h/mL. In addition, the “Cmax” value in series [3] (5 mpk, 5 mg/kg) is 14467 ng/mL. Further, the F % in series [3] (5 mpk, 5 mg/kg) worked out at 75%. In addition, the “MRT0-∞” value in series [3] (5 mpk, 5 mg/kg) was found to be 5.3 h. For the same compound, the “t1/2” value in series [3] (5 mpk, 5 mg/kg) is on record as 3.7 h. Moreover, the “tmax” value in series [3] (5 mpk, 5 mg/kg) is on record as 2.0 h. The “Stability result (total impurity increase %)” value was determined as 0.12% in series [4] (50° C., 75% RH, 7 days); 0.56% in series [4] (50° C., 75% RH, 14 days); 0.76% in series [4] (60° C., 7 days); 0.66% in series [4] (60° C., 14 days); 0.17% in series [4] (92.5% RH, 7 days); 0.06% in series [4] (92.5% RH, 14 days). The hygroscopicity entry in series [5] is “weak hygroscopicity”. In addition, the “weight gain after moisture absorption” value in series [5] was determined as 1.785%. Besides, in series [5], the “crystalline form transformation (XRPD pattern)” value is recorded as “no crystalline form transformation occurred”.

On to `CCc1cc2ncc(CN3CC=C(c4ccc(C(=O)NC5CC5)nc4)CC3)cc2[nH]c1=O` [Example 2], for which the animal weight result in series [6] is “without significant reduction of the animal weight”.

As a reminder, the IC50 is the concentration that gives 50% inhibition. On to `CCc1cc2ncc(CN3CC=C(c4ccc(C(=O)NOC)nc4)CC3)cc2[nH]c1=O` [Example 3], for which the IC50 in series [7] was found to be 3.2 nM.

Turning to `CCc1cc2ncc(CN3CC=C(c4ccc(C(=O)NC)nc4Cl)CC3)cc2[nH]c1=O` [Example 13], in series [7], the IC50 worked out at 1 nM.

Consider `CCc1cc2ncc(CN3CC=C(c4ccc(C(=O)NCC#N)nc4)CC3)cc2[nH]c1=O` [Example 15], for which the IC50 in series [7] turned out to be 2.4 nM.

As to `CCc1cc2ncc(CN3CC=C(c4ccc(C(=O)NC5(C#N)CC5)nc4)CC3)cc2[nH]c1=O` [Example 16], the IC50 in series [7] was determined as 2.7 nM.

For the compound `CCc1cc2ncc(CN3CCC(c4ccc(C(=O)NC)nc4)=C(F)C3)cc2[nH]c1=O` [Example 19], the IC50 in series [7] came out at 1.5 nM.

In the case of `CCc1cc2ncc(CN3CC=C(c4ccc(C(=O)NCC(F)(F)F)nc4)CC3)cc2[nH]c1=O` [Example 20], the IC50 in series [7] stood at 1.4 nM.

As to `CNC(=O)c1ccc(C2=CCN(Cc3cnc4cc(C(F)(F)F)c(=O)[nH]c4c3)CC2)cn1` [Example 21], the IC50 in series [7] came out at 5.1 nM.
